Measurements as given in paper PMC5584945, “Evaluation of robenidine analog NCL195 as a novel broad-spectrum antibacterial agent” (PLoS ONE, 2017).
≈ marks a conversion by molar mass, not a printed value.

Tests used:
S. pneumoniae = experiment: MIC, broth micro-dilution (CLSI); type: cell-based, Streptococcus pneumoniae; conditions: for MIC / MIC50 / MIC90: Streptococcus pneumoniae
S. aureus Xen29 [1] = experiment: Time-dependent killing assay; type: cell-based, Staphylococcus aureus
Protocol: (§1) Time kill assays were performed (in duplicate) essentially as described previously with slight modifications. Briefly, a few colonies of luminescent S. pneumoniae strain D39LUX or luminescent S. aureus ATCC 12600 (Xen29) from an overnight HBA were emulsified in normal saline and adjusted to A600 nm = 0.10 (equivalent to approx. 5 × 10^7 c.f.u. per ml) and the bacterial suspension further diluted 1:20 in saline. […] The compounds were serially diluted in 100% DMSO at 100× the final desired concentration and 100 μl of appropriate concentrations added to each 10 ml preparation. Duplicate cultures were incubated at 37°C (+ 5% CO2 for S. pneumoniae D39), with samples withdrawn at 0, 0.5, 1, 2, 4, 6, 8 and 24 h, serially diluted 10-fold and plated on HBA overnight at 37°C (+ 5% CO2 for S. pneumoniae D39) for bacterial enumeration.

S. pneumoniae D39 = experiment: Time-dependent killing assay; type: cell-based, Streptococcus pneumoniae
Protocol: as §1

[2] = Pharmacokinetics after IV administration; type: in vivo, mouse; conditions: mouse, plasma, male Swiss outbred mice
Protocol: Mice had access to food and water ad libitum throughout the pre- and post-dose sampling period. The Animal Ethics Committee of the Monash Institute of Pharmaceutical Sciences reviewed and approved all animal PK experiments (approval number MIPS.2013.33). The PK studies were conducted in compliance with the Australian Code of Practice for the Care and Use of Animals for Scientific Purposes (7th Edition 2004). […] For both the IV and IP administration, a maximum of two samples were obtained from each mouse, with samples being taken either via submandibular bleed (approximately 120 μl; conscious sampling) or terminal cardiac puncture (0.6 ml; under inhaled Isoflurane anesthesia). No urine samples were collected as mice were housed in bedded cages during the study. […] Mice were humanely sacrificed by cervical dislocation while under anaesthesia (using gaseous isoflurane) at the end of experiments. Blood was collected directly into polypropylene Eppendorf tubes containing heparin as anti-coagulant, and stabilization cocktail (containing Complete (a protease inhibitor cocktail with EDTA) and potassium fluoride) to minimize the potential for ex vivo degradation of the test compounds in blood/plasma samples. Once collected, blood samples were centrifuged immediately, supernatant plasma was removed, and stored at either -80°C (for the IV exposure) or at -20°C (for the IP exposure) until analysis by liquid chromatography-mass spectrometry (LC-MS). Following protein precipitation with acetonitrile, thawed plasma samples were analyzed by LC-MS (Waters Micromass Quattro Premier coupled to a Waters Acquity UPLC) using positive electrospray ionization operating in MRM mode.

S. aureus Xen29 [3] = experiment: Point of resistance assay (serial passage)

Work on `Cc1ccc(/C=N/Nc2cc(N/N=C/c3ccc(C)cc3)nc(N)n2)cc1` [NCL195, 4,6-bis(2-((E)-4-methylbenzylidene)hydrazinyl)pyrimidin-2-amine] yielded an MIC range (S. pneumoniae; 21 isolates) of 2 to 8 µg/mL, an MIC range (S. pneumoniae; S1 Table isolates, 5% FBS + 3% washed RBC) of 2 to 8 µg/mL and an MIC range (S. pneumoniae; S1 Table isolates, 10% FBS + 3% washed RBC) of 2 to 8 µg/mL. For the same compound, the “Change of MIC in the presence of serum” value (S. pneumoniae; S. pneumoniae D39, human, horse or mouse serum) was “remained the same”, the MIC (S. pneumoniae; A66.1 (serotype 3), 5% FBS) was 8 µg/mL (≈ 22.3 µM) and the MIC (S. pneumoniae; A66.1 (serotype 3), 10% FBS) was 8 µg/mL (≈ 22.3 µM). It also gave an MIC (S. pneumoniae; ATCC6303, ATCC 6303 (serotype 3), 5% FBS + 3% washed RBC) of 4 µg/mL, an MIC (S. pneumoniae; ATCC6303, ATCC 6303 (serotype 3), 10% FBS + 3% washed RBC) of 4 µg/mL and an MIC (S. pneumoniae; D39/D39LUX (serotype 2), 5% FBS) of 8 µg/mL (≈ 22.3 µM). It also gave an MIC (S. pneumoniae; D39/D39LUX (serotype 2), 10% FBS) of 8 µg/mL (≈ 22.3 µM), an MIC (S. pneumoniae; EF3030 (serotype 19F), 5% FBS) of 8 µg/mL (≈ 22.3 µM) and an MIC (S. pneumoniae; EF3030 (serotype 19F), 10% FBS) of 8 µg/mL (≈ 22.3 µM). It also gave an MIC (S. pneumoniae; L82016 (serotype 6B), 5% FBS) of 4 µg/mL (≈ 11.1 µM), an MIC (S. pneumoniae; L82016 (serotype 6B), 10% FBS) of 8 µg/mL (≈ 22.3 µM) and an MIC (S. pneumoniae; P9 (serotype 6A), 5% FBS) of 8 µg/mL (≈ 22.3 µM). The MIC (S. pneumoniae; P9 (serotype 6A), 10% FBS) was 8 µg/mL (≈ 22.3 µM), the MIC (S. pneumoniae; P21 (serotype 3), 5% FBS) was 8 µg/mL (≈ 22.3 µM) and the MIC (S. pneumoniae; P21 (serotype 3), 10% FBS) was 8 µg/mL (≈ 22.3 µM). It also gave an MIC50 (S. pneumoniae; S1 Table isolates, 5% FBS) of 4 µg/mL (≈ 11.1 µM), an MIC90 (S. pneumoniae; S1 Table isolates, 5% FBS) of 8 µg/mL (≈ 22.3 µM) and an MIC50 (S. pneumoniae; S1 Table isolates, 10% FBS) of 8 µg/mL (≈ 22.3 µM). For the same compound, the MIC90 (S. pneumoniae; S1 Table isolates, 10% FBS) was 8 µg/mL (≈ 22.3 µM), the MIC (S. pneumoniae; TIGR4 (serotype 4), 5% FBS) was 4 µg/mL (≈ 11.1 µM) and the MIC (S. pneumoniae; TIGR4 (serotype 4), 10% FBS) was 4 µg/mL (≈ 11.1 µM). For the same compound, the MIC (S. pneumoniae; WCH16 (serotype 6A), 5% FBS) was 8 µg/mL (≈ 22.3 µM), the MIC (S. pneumoniae; WCH16 (serotype 6A), 10% FBS) was 8 µg/mL (≈ 22.3 µM) and the MIC (S. pneumoniae; WCH43 (serotype 4), 5% FBS) was 4 µg/mL (≈ 11.1 µM). The MIC (S. pneumoniae; WCH43 (serotype 4), 10% FBS) was 4 µg/mL (≈ 11.1 µM), the MIC (S. pneumoniae; WCH46 (serotype 4), 5% FBS) was 4 µg/mL (≈ 11.1 µM) and the MIC (S. pneumoniae; WCH46 (serotype 4), 10% FBS) was 4 µg/mL (≈ 11.1 µM). The MIC (S. pneumoniae; WCH57 (serotype 8), 5% FBS) was 4 µg/mL (≈ 11.1 µM), the MIC (S. pneumoniae; WCH57 (serotype 8), 10% FBS) was 4 µg/mL (≈ 11.1 µM) and the MIC (S. pneumoniae; WCH77 (serotype 5), 5% FBS) was 2 µg/mL (≈ 5.56 µM). The MIC (S. pneumoniae; WCH77 (serotype 5), 10% FBS) was 2 µg/mL (≈ 5.56 µM), the MIC (S. pneumoniae; WCH86 (serotype 4), 5% FBS) was 4 µg/mL (≈ 11.1 µM) and the MIC (S. pneumoniae; WCH86 (serotype 4), 10% FBS) was 4 µg/mL (≈ 11.1 µM). For the same compound, the MIC (S. pneumoniae; WCH89 (serotype 7), 5% FBS) was 8 µg/mL (≈ 22.3 µM), the MIC (S. pneumoniae; WCH89 (serotype 7), 10% FBS) was 8 µg/mL (≈ 22.3 µM) and the MIC (S. pneumoniae; WCH92 (serotype 4), 5% FBS) was 4 µg/mL (≈ 11.1 µM). For the same compound, the MIC (S. pneumoniae; WCH92 (serotype 4), 10% FBS) was 4 µg/mL (≈ 11.1 µM), the MIC (S. pneumoniae; WCH137 (serotype 6A), 5% FBS) was 8 µg/mL (≈ 22.3 µM) and the MIC (S. pneumoniae; WCH137 (serotype 6A), 10% FBS) was 8 µg/mL (≈ 22.3 µM). It also gave an MIC (S. pneumoniae; WCH158 (serotype 19F), 5% FBS) of 4 µg/mL (≈ 11.1 µM), an MIC (S. pneumoniae; WCH158 (serotype 19F), 10% FBS) of 4 µg/mL (≈ 11.1 µM) and an MIC (S. pneumoniae; WCH184 (serotype 19F), 5% FBS) of 8 µg/mL (≈ 22.3 µM). For the same compound, the MIC (S. pneumoniae; WCH184 (serotype 19F), 10% FBS) was 8 µg/mL (≈ 22.3 µM), the MIC (S. pneumoniae; WCH211 (serotype 11), 5% FBS) was 4 µg/mL (≈ 11.1 µM) and the MIC (S. pneumoniae; WCH211 (serotype 11), 10% FBS) was 4 µg/mL (≈ 11.1 µM). For the same compound, the MIC (S. pneumoniae; WU2 (serotype 3), 5% FBS) was 8 µg/mL (≈ 22.3 µM), the MIC (S. pneumoniae; WU2 (serotype 3), 10% FBS) was 8 µg/mL (≈ 22.3 µM) and the “Time to clear all Xen29” value (S. aureus Xen29 [1]; 2× MIC) was 6 h. The “Time to clear all Xen29” value (S. aureus Xen29 [1]; 4× MIC) was 6 h, the “Regrowth after 24 h” value (S. aureus Xen29 [1]; at the concentrations tested (2× and 4× MIC)) was “some S. aureus regrowth was observed” and the “Time to reduce the population below the limit of detection” value (S. pneumoniae D39; 2× MIC) was 6 h. For the same compound, the “Time to reduce the population below the limit of detection” value (S. pneumoniae D39; 4× MIC) was 4 h, the AUC(0-inf) ([2]; male, Swiss (outbred), iv, 5 mg/kg, read-out: AUC0-inf) was 12.5 µM·h and the clearance ([2]; male, Swiss (outbred), iv, 5 mg/kg, read-out: Plasma CL) was 16.3 mL/min/kg. For the same compound, the half-life ([2]; IV 5 mg/kg, read-out: Apparent t½ (converted)) was 2.4 h, the Vd ([2]; IV 5 mg/kg, read-out: Plasma VSS) was 2.6 L/kg and the “MIC of colonies that grew after 72 h in the presence of NCL195” value (S. aureus Xen29 [3]; 10^5 c.f.u. Xen29 in broth with 1×, 2× and 4× MIC) was 1 × MIC. For the same compound, the “Resistance (fold MIC) over serial passage” value (S. aureus Xen29 [3]; 24 daily sequential cultures) was ≤ 1 × MIC.
